Data reported in ChEMBL document CHEMBL4732190, “Identification of Potent and Long-Acting Single-Chain Peptide Mimetics of Human Relaxin-2 for Cardiovascular Diseases” (J Med Chem, 2021).
Converted amounts (≈) assume the structure as drawn. *1 amine or outer side, *2 acyl side, *3 side chain or, on linkers, in order; H or OH if unused. Where a SMILES comes first, the peptide text is derived from it. [ ]: non-standard residue; d: D form. The star is where a group is joined. PEG11 = NCCOCCOCCOCCOCCOCCOCCOCCOCCOCCOCCOCCC(=O)O; X3 = CCCCCCCCCCCCCCCCCCC(=O)[C@H](CCC(N)=O)N*; X6 = CCCCCCCCCCCCCCCCCCC(=O)[C@H](CCC(=O)O)N*; X2 = CCCCCCCCCCCCCCCCCC(=O)[C@H](CCC(N)=O)N*; X1 = CCCCCCCCCCCCCCCCC(=O)[C@H](CCC(N)=O)N*; β2hAla(2S) = C[C@@H](CN[*:1])C(=O)[*:2]; hLys = NCCCCC[C@H](N)C(=O)O; Nle = CCCC[C@H](N)C(=O)O; AEEA = NCCOCCOCC(=O)O

How the values were obtained:
[1] = target: T1, Relaxin receptor 1 (Homo sapiens) (UniProt Q9HBX9); assay: Selectivity ratio of EC50 for agonist activity at RXFP1 endogenously expressed in human OVCAR-5 cells in presence of 2 % HSA to EC50 for agonist activity at RXFP1 endogenously expressed in human OVCAR-5 cells in absence of HSA; format: cell-based
T1 sequence (whole entry): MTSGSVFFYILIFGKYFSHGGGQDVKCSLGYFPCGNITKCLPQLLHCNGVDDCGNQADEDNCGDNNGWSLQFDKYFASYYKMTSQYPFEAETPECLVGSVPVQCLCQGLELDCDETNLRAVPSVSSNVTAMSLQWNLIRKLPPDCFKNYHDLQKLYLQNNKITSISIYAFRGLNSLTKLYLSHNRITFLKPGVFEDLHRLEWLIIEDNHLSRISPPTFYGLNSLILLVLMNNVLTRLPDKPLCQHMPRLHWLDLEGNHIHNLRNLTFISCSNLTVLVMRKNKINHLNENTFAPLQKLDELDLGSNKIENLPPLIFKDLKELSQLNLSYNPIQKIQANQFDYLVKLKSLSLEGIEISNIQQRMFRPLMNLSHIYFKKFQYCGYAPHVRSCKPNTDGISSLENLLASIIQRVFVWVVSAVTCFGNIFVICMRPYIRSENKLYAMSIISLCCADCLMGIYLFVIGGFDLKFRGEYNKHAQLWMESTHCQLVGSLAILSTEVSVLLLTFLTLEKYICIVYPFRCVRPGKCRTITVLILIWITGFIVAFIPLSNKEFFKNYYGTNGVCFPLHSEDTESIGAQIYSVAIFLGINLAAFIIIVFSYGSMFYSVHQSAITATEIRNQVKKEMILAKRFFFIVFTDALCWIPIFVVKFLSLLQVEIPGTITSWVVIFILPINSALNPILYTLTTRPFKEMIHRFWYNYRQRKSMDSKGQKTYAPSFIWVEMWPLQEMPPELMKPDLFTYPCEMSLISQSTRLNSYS

[2] = Positive chronotropic activity in pithed Sprague-Dawley rat assessed as increase in heart rate at 1000 mg/kg, iv administered as bolus dose measured after 60 mins post dose; format: ADME, organism-based; conditions: in vivo, 1 h
Relaxin receptor 1 [3] = target: T2, Relaxin receptor 1 (Homo sapiens, UniProt Q9HBX9); assay: Agonist activity at RXFP1 endogenously expressed in human OVCAR-5 cells assessed as increase in IBMX-induced cAMP accumulation pretreated with IBMX for 40 mins followed by compound addition and measured after 30 mins by HTRF assay; format: functional, cell-based
T2 sequence (Q9HBX9 whole entry): T1 sequence (whole entry)

[4] = Half life in Sprague-Dawley rat at 1 mg/kg, iv measured upto 72 hrs by LC-HRMS analysis; format: ADME, organism-based; conditions: in vivo
Relaxin receptor 1 [5] = target: T2, Relaxin receptor 1; assay: Agonist activity at RXFP1 endogenously expressed in human OVCAR-5 cells assessed as increase in IBMX-induced cAMP accumulation pretreated with IBMX for 40 mins followed by compound addition and measured after 30 mins in presence of 2 % HSA by HTRF assay; format: functional, cell-based
[6] = Stability in rat plasma assessed as parent compound remaining level at 5 uM remaining after 4 hrs; format: ADME, cell-free; conditions: read-out: Stabilty
[7] = Stability in human plasma assessed as parent compound remaining level at 5 uM remaining after 4 hrs; format: ADME, cell-free; conditions: read-out: Stabilty
[8] = Aqueous solubility of compound in phosphate buffer at pH 7.4 measured after 24 hrs by UPLC analysis; format: physicochemical
[9] = Positive chronotropic activity in pithed Sprague-Dawley rat assessed as increase in heart rate at 20 to 1000 mg/kg, iv administered as bolus dose measured after 60 mins post dose; format: ADME, organism-based; conditions: in vivo, 1 h, dose 20-1000 mg/kg
[10] = target: T1, Relaxin receptor 1 (Homo sapiens); assay: Agonist activity at RXFP1 endogenously expressed in human OVCAR-5 cells assessed as increase in IBMX-induced cAMP accumulation pretreated with IBMX for 40 mins followed by compound addition and measured after 30 mins in presence of 2 % HSA by HTRF assay relative to control; format: functional, cell-based; conditions: filed as agonist
[11] = target: T1, Relaxin receptor 1 (Homo sapiens); assay: Agonist activity at RXFP1 endogenously expressed in human OVCAR-5 cells assessed as increase in IBMX-induced cAMP accumulation pretreated with IBMX for 40 mins followed by compound addition and measured after 30 mins by HTRF assay relative to relaxin; format: functional, cell-based; conditions: filed as agonist
[12] = Stability in rat blood assessed as parent compound at 5 uM remaining after 4 hrs; format: ADME, tissue-based; conditions: read-out: Stabilty
[13] = Stability in human blood assessed as parent compound at 5 uM remaining after 4 hrs; format: ADME, tissue-based; conditions: read-out: Stabilty
[14] = Bioavailability in Sprague-Dawley rat at 3 mg/kg, sc measured upto 72 hrs by LC-HRMS analysis; format: ADME, organism-based; conditions: in vivo

Row | SMILES | Ratio EC50 [1] | EC50 (Relaxin receptor 1 [3]) | half-life [4] | EC50 (Relaxin receptor 1 [5]) | remaining at 4 h, 5 µM [6] | remaining at 4 h, 5 µM [7] | solubility at 24 h [8] | Emax [10] | Emax [11] | remaining at 4 h, 5 µM [12] | remaining at 4 h, 5 µM [13] | bioavailability [14] | Emin [2] | Activity [9]
1 | CCCCCCCCCCCCCCCCCCC(=O)[C@H](CCC(N)=O)NC(=O)[C@H](CCC(=O)O)NC(=O)[C@H](CCC(=O)O)NC(=O)[C@H](CCCCN)NC(=O)CCOCCOCCOCCOCCOCCOCCOCCOCCOCCOCCOCCNC(=O)[C@H](CCCCCNC(C)=O)NC(=O)[C@H](CCCCN)NC(=O)[C@@H](C)CNC(=O)[C@@H](C)CNC(=O)[C@@H](NC(=O)[C@H](CCCCCNC(C)=O)NC(=O)[C@H](CCCCN)NC(=O)[C@H](C)NC(=O)[C@H](CCCNC(=N)N)NC(=O)[C@@H](NC(=O)[C@H](CCCCN)NC(=O)[C@H](CCC(=O)O)NC(=O)[C@H](CCCNC(=N)N)NC(=O)[C@H](CCC(=O)O)NC(=O)CNC(=O)[C@H](CCC(=O)O)NC(=O)[C@H](CC(C)C)NC(C)=O)C(C)C)[C@@H](C)CC (Ac-LEGEREKVRAK[hLys](Ac)I[β2hAla(2S)][β2hAla(2S)]K[hLys](Ac)[PEG11]KEE-X3) | 15 | 0.6 nM | 43 h | 9 nM | 80% | 93% | 5400 µg/mL (≈ 1570 µM) | 84% | 95% | – | – | – | – | –
2 | CCCCCCCCCCCCCCCCC(=O)[C@H](CCC(N)=O)NC(=O)[C@H](CCC(=O)O)NC(=O)[C@H](CCC(=O)O)NC(=O)[C@H](CCCCN)NC(=O)[C@H](CCCCN)NC(=O)[C@H](CCCNC(=N)N)NC(=O)[C@@H](C)CNC(=O)[C@H](CO)NC(=O)[C@H](Cc1c[nH]c2ccccc12)NC(=O)[C@@H](NC(=O)[C@H](CO)NC(=O)[C@H](CCSC)NC(=O)CNC(=O)[C@H](CCC(=O)O)NC(=O)[C@@H](C)CNC(=O)[C@@H](C)CNC(=O)[C@@H](NC(=O)[C@H](CCC(N)=O)NC(=O)[C@H](C)NC(=O)[C@H](CCCNC(=N)N)NC(=O)[C@@H](NC(=O)[C@H](CCCCN)NC(=O)[C@H](CCC(=O)O)NC(=O)[C@H](CCCNC(=N)N)NC(=O)[C@H](CCC(=O)O)NC(=O)CNC(=O)[C@H](CCC(=O)O)NC(=O)[C@H](CC(C)C)NC(C)=O)C(C)C)[C@@H](C)CC)[C@@H](C)O (Ac-LEGEREKVRAQI[β2hAla(2S)][β2hAla(2S)]EGMSTWS[β2hAla(2S)]RKKEE-X1) | > 170 | 17.6 nM | 4.3 h | > 3000 nM | – | – | – | – | 97% | 93% | 91% | – | – | –
3 | CCCCCCCCCCCCCCCCCC(=O)[C@H](CCC(N)=O)NC(=O)[C@H](CCC(=O)O)NC(=O)[C@H](CCC(=O)O)NC(=O)[C@H](CCCCN)NC(=O)CCOCCOCCOCCOCCOCCOCCOCCOCCOCCOCCOCCNC(=O)[C@H](CCCCN)NC(=O)[C@H](CCCNC(=N)N)NC(=O)[C@@H](C)CNC(=O)[C@H](CO)NC(=O)[C@H](Cc1c[nH]c2ccccc12)NC(=O)[C@@H](NC(=O)[C@H](CO)NC(=O)[C@H](CCCC)NC(=O)[C@H](CCSC)NC(=O)CNC(=O)[C@H](CCC(=O)O)NC(=O)[C@@H](C)CNC(=O)[C@@H](C)CNC(=O)[C@@H](NC(=O)[C@H](CCC(N)=O)NC(=O)[C@H](C)NC(=O)[C@H](CCCNC(=N)N)NC(=O)[C@@H](NC(=O)[C@H](CCCCN)NC(=O)[C@H](CCC(=O)O)NC(=O)[C@H](CCCNC(=N)N)NC(=O)[C@H](CCC(=O)O)NC(=O)CNC(=O)[C@H](CCC(=O)O)NC(=O)[C@H](CC(C)C)NC(C)=O)C(C)C)[C@@H](C)CC)[C@@H](C)O (Ac-LEGEREKVRAQI[β2hAla(2S)][β2hAla(2S)]EGM[Nle]STWS[β2hAla(2S)]RK[PEG11]KEE-X2) | 31 | 1 nM | 4.8 h | 31 nM | – | – | – | 80% | 79% | – | – | 100% | – | –

Compounds with a lower EC50 (Relaxin receptor 1 [3]), results first:

Row | Ratio EC50 [1] | EC50 (Relaxin receptor 1 [3]) | half-life [4] | EC50 (Relaxin receptor 1 [5]) | remaining at 4 h, 5 µM [6] | remaining at 4 h, 5 µM [7] | solubility at 24 h [8] | Emax [10] | Emax [11] | remaining at 4 h, 5 µM [12] | remaining at 4 h, 5 µM [13] | bioavailability [14] | SMILES | Emin [2] | Activity [9]
4 | 92 | 0.2 nM | 3.9 h | 18.4 nM | 114% | 111% | 11400 µg/mL (≈ 2330 µM) | 89% | 89% | – | – | – | CCCCCCCCCCCCCCCCCC(=O)[C@H](CCC(N)=O)NC(=O)[C@H](CCC(=O)O)NC(=O)[C@H](CCC(=O)O)NC(=O)[C@H](CCCCN)NC(=O)COCCOCCNC(=O)COCCOCCNC(=O)COCCOCCNC(=O)[C@H](CCCCCNC(C)=O)NC(=O)[C@H](CCCCN)NC(=O)[C@H](CCCCN)NC(=O)[C@H](CCCNC(=N)N)NC(=O)[C@@H](C)CNC(=O)[C@H](CO)NC(=O)[C@H](Cc1c[nH]c2ccccc12)NC(=O)[C@@H](NC(=O)[C@H](CO)NC(=O)[C@H](CCCCCNC(C)=O)NC(=O)[C@H](CCCCN)NC(=O)[C@H](CCCC)NC(=O)[C@H](CCSC)NC(=O)CNC(=O)[C@H](CCC(=O)O)NC(=O)[C@@H](C)CNC(=O)[C@@H](C)CNC(=O)[C@@H](NC(=O)[C@H](CCCCCNC(C)=O)NC(=O)[C@H](CCCCN)NC(=O)[C@H](C)NC(=O)[C@H](CCCNC(=N)N)NC(=O)[C@@H](NC(=O)[C@H](CCCCN)NC(=O)[C@H](CCC(=O)O)NC(=O)[C@H](CCCNC(=N)N)NC(=O)[C@H](CCC(=O)O)NC(=O)CNC(=O)[C@H](CCC(=O)O)NC(=O)[C@H](CC(C)C)NC(C)=O)C(C)C)[C@@H](C)CC)[C@@H](C)O (Ac-LEGEREKVRAK[hLys](Ac)I[β2hAla(2S)][β2hAla(2S)]EGM[Nle]K[hLys](Ac)STWS[β2hAla(2S)]RKK[hLys](Ac)[AEEA][AEEA][AEEA]KEE-X2) | 26% | Dose-dependent effect
5 | 198 | 0.1 nM | 3.4 h | 19.8 nM | – | – | – | 82% | 88% | – | – | – | CCCCCCCCCCCCCCCCCCC(=O)[C@H](CCC(=O)O)NC(=O)[C@H](CCC(=O)O)NC(=O)[C@H](CCC(=O)O)NC(=O)[C@H](CCCCN)NC(=O)COCCOCCNC(=O)COCCOCCNC(=O)COCCOCCNC(=O)[C@H](CCCCCNC(C)=O)NC(=O)[C@H](CCCCN)NC(=O)[C@H](CCCCN)NC(=O)[C@H](CCCNC(=N)N)NC(=O)[C@@H](C)CNC(=O)[C@H](CO)NC(=O)[C@H](Cc1c[nH]c2ccccc12)NC(=O)[C@@H](NC(=O)[C@H](CO)NC(=O)[C@H](CCCCCNC(C)=O)NC(=O)[C@H](CCCCN)NC(=O)[C@H](CCCC)NC(=O)[C@H](CCSC)NC(=O)CNC(=O)[C@H](CCC(=O)O)NC(=O)[C@@H](C)CNC(=O)[C@@H](C)CNC(=O)[C@@H](NC(=O)[C@H](CCCCCNC(C)=O)NC(=O)[C@H](CCCCN)NC(=O)[C@H](C)NC(=O)[C@H](CCCNC(=N)N)NC(=O)[C@@H](NC(=O)[C@H](CCCCN)NC(=O)[C@H](CCC(=O)O)NC(=O)[C@H](CCCNC(=N)N)NC(=O)[C@H](CCC(=O)O)NC(=O)CNC(=O)[C@H](CCC(=O)O)NC(=O)[C@H](CC(C)C)NC(C)=O)C(C)C)[C@@H](C)CC)[C@@H](C)O (Ac-LEGEREKVRAK[hLys](Ac)I[β2hAla(2S)][β2hAla(2S)]EGM[Nle]K[hLys](Ac)STWS[β2hAla(2S)]RKK[hLys](Ac)[AEEA][AEEA][AEEA]KEE-X6) | – | –
